Measured values as given in patent US9221868B2, “Uridine di- or tri-phosphate derivatives and uses thereof” (BAR-ILAN UNIVERSITY, priority 2010, dated 2015).
“Also recorded” adds a separate entry of the source. Like-named read-outs stand apart in the source and are kept apart here.

What was measured:
P2Y2-R [1] = molecular target: T1, P2Y2-R (Homo sapiens, UniProt P41231); assay: [Ca2+]i increase in 1321N1 astrocytoma cells expressing P2Y2-R; format: cell-based; design: expressed in transfected cells; host or cells: 1321N1 astrocytoma cells
Method: (§1) Green fluorescent protein (GFP) constructs of human P2Y2-R, P2Y4-R and P2Y6-R were expressed in 1321N1 astrocytoma cells, which lack endogenous expression of P2X- and P2Y-receptors. The respective cDNA of the receptor gene was cloned into a pEGFPN1 vector. After transfection using FuGENE 6 Transfection Reagent (Roche Molecular Biochemicals, Mannheim, Germany), the cells were selected with 0.5 mg/ml G418 (geneticine; Merck Chemicals, Darmstadt, Germany) and grown in Dulbecco's modified Eagles' medium (DMEM) supplemented with 10% fetal calf serum, 100 U/ml penicillin and […] at 37° C. and 5% CO2. The expression and cell membrane localization of the respective P2Y receptors was confirmed through the analysis of the GFP fluorescence. The functionality of the expressed GFP-labeled receptor in cells was verified by recording a change of [Ca^2+]i after stimulation with the appropriate receptor agonist.
(§2) 1321N1 astrocytoma cells transfected with the respective plasmid for P2YR-GFP expression plated on coverslips (22 mm diameter) and grown to approximately 80% density were incubated with 2 μM fura 2/AM and 0.02% pluronic acid in Na-HBS buffer (Hepes buffered saline: 145 mM NaCl, 5.4 mM KCl, 1.8 mM CaCl2, 1 mM MgCl2, 25 mM glucose, 20 mM Hepes/Tris pH 7.4) for 30 min at 37° C. The cells were superfused (1 ml/min, 37° C.) with different concentrations of nucleotide in Na-HBS buffer, and the nucleotide-induced change of [Ca^2+]i was measured by detecting the respective emission intensity of fura 2/AM at 510 nm with after 340 nm and 380 nm excitations (Ubl et al., 1998). The average maximal amplitude of the responses and the respective standard errors were calculated from the ratio of the fura 2/AM fluorescence intensities with excitations at 340 nm and 380 nm (only MT-labeled cells were analysed). Microsoft Excel (Microsoft Corp., Redmond, Wash., USA) and SigmaPlot (SPSS Inc., Chicago, Ill., USA) were used to derive the concentration-response curves and EC50 values from the average response amplitudes obtained in at least three independent experiments (Ecke et al., 2006, 2008). Only cells with a clear MT-signal and with the typical calcium response kinetics upon agonist pulse application were included in the data analysis. The GFP-tagged P2Y receptors are suitable for pharmacological and physiological studies, as previously reported (Tulapurkar et al., 2004, 2006; Zylberg et al., 2007).
(§3) In this study, analogues 13-17 were tested for their potency and selectivity at P2Y2,4,6-receptors based on measurements of increases in intracellular calcium concentrations in 1321N1 astrocytoma cells transfected with the respective plasmid, as described in Materials and Methods, and the results are summarized in Table 2.

P2Y6-R = molecular target: T2, P2Y6-R (Homo sapiens, UniProt Q15077); assay: [Ca2+]i increase in 1321N1 astrocytoma cells expressing P2Y6-R; format: cell-based; details: for EC50: 1321N1 astrocytoma cells, [Ca2+]i, read-out: Potencies (EC50) at the P2Y6-R; for Activity at the P2Y6-R (in words): 1321N1 cells
T2 construct: expressed in transfected cells; host or cells: 1321N1 astrocytoma cells
Method: as §1, §2
1321N1 cell lines stably expressing the human P2Y6 receptors were grown as previously described in DMEM (5% FBS, 100 IU/ml penicillin, 100 μg/ml streptomycin, 1× Glutamax, 10 mM Hepes and 0.5 mg/ml G-418) at 37° C. in a humidified atmosphere containing 5% CO2 and 95% air (Gendron et al., 2003).
1321N1 cells (10×10^6 cells grown in 10 cm^2 dishes) were harvested by a brief trypsin/EDTA treatment, suspended in complete culture medium, and washed by centrifugation for 3 min at 100×g before being incubated with 1 μM Fluo 4/AM in 4.5 ml HBSS with Ca^2+ and Mg^2+ (Wisent, St. Bruno, QC) for 25 min at 37° C. Cells were washed by centrifugation (100×g, 3 min), suspended in HBSS containing Ca^2+ and Mg^2+, and incubated for 25 min at 37° C. Cells were washed and suspended in 16 ml of FIBSS containing Ca^+ and Mg^2+. Cell suspension (2 ml) was gently stirred in a quartz cuvette while [Ca^2+]i and monitored on a RF-5301 PC Shimadzu spectrofluorometer with Panormama fluorescence 1.1 software (Man-Tech, Guelph, ON). Excitation wavelengths of 488 nm and emission wavelength of 520 nm were used to measure changes in intracellular Fluo 4 fluorescence intensity (F). At the end of each recording, maximal fluorescence (Fmax) and minimal fluorescence (Fmin) were determined by adding successively 0.1% Triton X-100 and 50 mM EDTA to cell suspensions. The following equation from Grynkiewicz et al. (1985) was used to relate the fluorescence intensity to Ca^2+ levels: [Ca^2+]=Kd×(F−Fmin)/(Fmax−F), wherein Kd is the Ca^+ dissociation constant of the indicator (345 nM). […]

P2Y4-R = molecular target: T3, P2Y4-R (Homo sapiens, UniProt P51582); assay: [Ca2+]i increase in 1321N1 astrocytoma cells expressing P2Y4-R; format: cell-based; details: n.d.r = no detectable response up to 100 μM
T3 construct: expressed in transfected cells; host or cells: 1321N1 astrocytoma cells
Method: as §1, §2, §3

[2] = test system: intraocular pressure in normotense rabbits; details: cited from earlier work
P2Y2 receptor = P2Y2 receptor (Rattus norvegicus, UniProt P41232); details: compared to ATP and UTP; Tulapurkar et al., 2004; cited from earlier work
physchem = details: for Rate constant of phosphate ester hydrolysis at pH 1.4: pH 1.4, 37° C., pseudo-first-order
Method: All stability experiments were performed in duplicates.
The stability of UDP, 11, 12 and 13A in a buffer solution (pH 1.4) was evaluated by ^31P NMR at 37° C. for monitoring possible dephosphorylation products (the signal of the phosphate hydrolysis products is at ˜0 ppm, while that of the borano phosphate analogues is at ˜85 ppm). NMR spectra were recorded on a Bruker DMX-600 spectrometer with a ^31P NMR probe (isotope frequency of 240 MHz) using 85% H3PO4 as an external reference.
Sodium salts of UDP, 11, 12 and 13A were dissolved in 0.45 ml of KCl/HCl buffer (pH 1.4) and D2O (0.05 ml) was added. The final pH was adjusted to pH 1.4. pH measurements were performed with an Metrohm pH electrode and a Metrohm 827 meter. Spectra were recorded at 15 min, 1 h, or 24 h time intervals at 37° C. For experiments that were several days long, the solution was kept in an oil bath at 37° C. and spectra were recorded at ca. 24 h time intervals. The phosphate ester hydrolysis rate was determined by measuring the change of the integration of one of the phosphates signals of the starting material with time.

P2Y2-R [3] = molecular target: T1, P2Y2-R; details: Ginsburg-Shmuel et al., 2010; read-out: EC50 at P2Y2-R (literature); cited from earlier work
[4] = 1321N1 astrocytoma cells, [Ca2+]i, n.d.r = no detectable response up to 100 μM

T2 sequence (Q15077 whole entry): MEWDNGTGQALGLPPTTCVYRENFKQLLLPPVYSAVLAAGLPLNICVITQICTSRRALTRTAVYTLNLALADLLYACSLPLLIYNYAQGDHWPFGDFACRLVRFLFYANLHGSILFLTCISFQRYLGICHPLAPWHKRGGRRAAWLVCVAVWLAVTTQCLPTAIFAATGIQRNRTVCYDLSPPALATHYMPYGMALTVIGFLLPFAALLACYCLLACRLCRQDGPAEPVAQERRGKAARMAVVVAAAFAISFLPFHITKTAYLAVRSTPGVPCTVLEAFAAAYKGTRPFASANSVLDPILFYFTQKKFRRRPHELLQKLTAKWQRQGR
T3 sequence (P51582 whole entry): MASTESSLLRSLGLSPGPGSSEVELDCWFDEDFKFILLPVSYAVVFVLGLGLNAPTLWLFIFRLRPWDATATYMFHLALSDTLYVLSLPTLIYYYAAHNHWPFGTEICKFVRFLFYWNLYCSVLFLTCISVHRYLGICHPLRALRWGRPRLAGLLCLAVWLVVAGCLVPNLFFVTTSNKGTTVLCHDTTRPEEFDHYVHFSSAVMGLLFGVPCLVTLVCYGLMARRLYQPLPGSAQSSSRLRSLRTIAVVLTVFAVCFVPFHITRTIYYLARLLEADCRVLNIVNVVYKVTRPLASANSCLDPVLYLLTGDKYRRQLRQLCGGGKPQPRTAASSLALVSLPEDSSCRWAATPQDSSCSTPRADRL
T1 sequence (P41231 whole entry): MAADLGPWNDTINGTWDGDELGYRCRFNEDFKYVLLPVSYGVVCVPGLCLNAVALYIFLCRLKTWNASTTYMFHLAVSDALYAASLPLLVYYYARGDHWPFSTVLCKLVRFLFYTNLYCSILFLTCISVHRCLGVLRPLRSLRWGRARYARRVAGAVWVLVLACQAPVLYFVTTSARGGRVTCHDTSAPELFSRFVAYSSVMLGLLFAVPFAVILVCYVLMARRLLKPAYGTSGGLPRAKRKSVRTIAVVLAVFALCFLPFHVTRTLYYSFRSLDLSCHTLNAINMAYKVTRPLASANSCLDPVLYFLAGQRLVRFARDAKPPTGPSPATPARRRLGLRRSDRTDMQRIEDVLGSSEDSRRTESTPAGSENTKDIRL
Chain of P2Y2 receptor (P41232 whole entry): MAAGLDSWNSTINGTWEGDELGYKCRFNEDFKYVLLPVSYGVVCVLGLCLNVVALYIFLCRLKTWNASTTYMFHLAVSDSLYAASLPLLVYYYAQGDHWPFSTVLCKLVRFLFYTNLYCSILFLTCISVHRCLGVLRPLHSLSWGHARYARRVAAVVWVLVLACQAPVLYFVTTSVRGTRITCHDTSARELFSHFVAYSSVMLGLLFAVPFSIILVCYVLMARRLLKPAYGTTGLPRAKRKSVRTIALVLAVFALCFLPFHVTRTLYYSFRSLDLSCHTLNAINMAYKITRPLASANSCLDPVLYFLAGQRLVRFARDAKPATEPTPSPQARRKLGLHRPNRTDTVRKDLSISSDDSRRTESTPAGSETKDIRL

Row | Potencies (EC50) at the P2Y2-R (P2Y2-R [1]; [4]) | EC50 (P2Y6-R) | Potencies (EC50) at the P2Y4-R (P2Y4-R) | SMILES | also measured
1 | n.d.r | 4300 nM | n.d.r | [BH3-][P+](O)(OCC1OC(n2cc(OC)c(=O)[nH]c2=O)C(O)C1O)OP(=O)(O)O (single isomer, unassigned) [Analogue 13B, 5-methoxyuridine-5′-O-(α-boranodiphosphate)] | –
2 | n.d.r | 11200 ± 630 nM | n.d.r | [BH3-][P+](O)(OC[C@H]1O[C@@H](n2cc(OC)c(=O)[nH]c2=O)[C@H](O)[C@@H]1O)OP(=O)(O)OP(=O)(O)O (single isomer, unassigned) [Analogue 14A, 5-methoxyuridine-5′-O-(α-boranotriphosphate)] | –
3 | n.d.r | 20100 ± 700 nM | n.d.r | [BH3-][P+](O)(OC[C@H]1O[C@@H](n2cc(OC)c(=O)[nH]c2=O)[C@H](O)[C@@H]1O)OP(=O)(O)OP(=O)(O)O (single isomer, unassigned) [Analogue 14B, 5-methoxyuridine-5′-O-(α-boranotriphosphate)] | –
4 | n.d.r | 60 nM | n.d.r | [BH3-][P+](O)(OCC1OC(n2cc(OC)c(=O)[nH]c2=O)C(O)C1O)OP(=O)(O)OP(=O)(O)OCC1OC(n2cc(OC)c(=O)[nH]c2=O)C(O)C1O (single isomer, unassigned) [Analogue 16A, di-(5-OMe)-uridine 5′,5″-P^1,P^3,α-boranotriphosphate] | Less potent than mono-nucleotide counterpart 13A at P2Y6-R (P2Y6-R; ratio of EC50 values): about 9 times
5 | n.d.r | 2200 nM | n.d.r | [BH3-][P+](O)(OCC1OC(n2cc(OC)c(=O)[nH]c2=O)C(O)C1O)OP(=O)(O)OP(=O)(O)OCC1OC(n2cc(OC)c(=O)[nH]c2=O)C(O)C1O (single isomer, unassigned) [Analogue 16B, di-(5-OMe)-uridine 5′,5″-P^1,P^3,α-boranotriphosphate] | –
6 | – | – | – | CSc1nc(N)c2ncn([C@@H]3O[C@H](COP(=O)(O)OP(=O)(O)C(Cl)(Cl)P(=O)(O)O)[C@@H](O)[C@H]3O)c2n1 [2MeS-adenosine-β,γ-CCl2-5′-triphosphate] | Duration of effect on IOP (literature) [2]: about 5 hours; Reduction of IOP (literature) [2]: 32%; EC50 ([2]; read-out: EC50 of IOP reduction (literature)): 95.5 nM
7 | – | – | – | BP(=O)(OC[C@H]1O[C@@H](n2cnc3c(N)ncnc32)[C@H](O)[C@@H]1O)OP(=O)(O)OP(=O)(O)O (stereo partly drawn) [ATP(α-B)] | Response at the P2Y2 receptor (in words, literature) (P2Y2 receptor): very weak response
8 | – | – | – | [BH3-][P+](O)(OC[C@H]1O[C@@H](n2ccc(=O)[nH]c2=O)[C@H](O)[C@@H]1O)OP(=O)(O)O (stereo partly drawn) [Analogue 11, Uridine-5′-O-(α-boranodiphophate), reference compound] | Rate constant of phosphate ester hydrolysis at pH 1.4 (physchem): 1.14×10^−5 s^−1; Half-life in human blood serum: 21 h
9 | – | – | – | BP(=O)(OCC1OC(n2cc(OC)c(=O)[nH]c2=O)C(O)C1O)OP(=O)(O)O (stereo not drawn) [Analogue 13, 5-methoxyuridine-5′-O-(α-boranodiphosphate)] | Half-life (t1/2) of hydrolysis at pH 1.4 (physchem; buffer, pH 1.4): 16.9 h; Rate constant of phosphate ester hydrolysis at pH 1.4 (physchem): 1.31×10^−5 s^−1
10 | – | – | – | BP(=O)(OC[C@H]1O[C@@H](n2cc(OC)c(=O)[nH]c2=O)[C@H](O)[C@@H]1O)OP(=O)(O)OP(=O)(O)O (stereo partly drawn) [Analogue 14, 5-methoxyuridine-5′-O-(α-boranotriphosphate)] | Activity at the P2Y2-receptor (in words) (P2Y2-R [1]; 1321N1 cells): completely inactive; Activity at the P2Y6-R (in words) (P2Y6-R): hardly active
11 | n.d.r | > 10000 nM | n.d.r | COc1cn([C@@H]2O[C@H](COP(=O)(O)OP(=O)(O)OP(=O)(O)OC[C@H]3O[C@@H](n4cc(OC)c(=O)[nH]c4=O)[C@H](O)[C@@H]3O)[C@@H](O)[C@H]2O)c(=O)[nH]c1=O [Analogue 15, di-(5-OMe)-uridine 5′,5″-P^1,P^3, triphosphate] | Activity at the P2Y6-R (in words) (P2Y6-R): least active P2Y6-R agonist; also recorded: weakest potency among the tested nucleotides
12 | n.d.r | 200 nM | n.d.r | [BH3-][P+](O)(OP(=O)(O)OC[C@H]1O[C@@H](n2cc(OC)c(=O)[nH]c2=O)[C@H](O)[C@@H]1O)OP(=O)(O)OC[C@H]1O[C@@H](n2cc(OC)c(=O)[nH]c2=O)[C@H](O)[C@@H]1O [Analogue 17, di-(5-OMe)-uridine 5″5″-P^1,P^3,β-boranotriphosphate] | –
13 | – | – | – | O=c1ccn([C@@H]2O[C@H](COP(=O)(O)OP(=O)(O)OP(=O)(O)O)[C@@H](O)[C@H]2O)c(=O)[nH]1 [UTP, reference compound] | EC50 (P2Y2-R [1]; 1321N1 astrocytoma cells, [Ca2+]i, n.d.r = no detectable response up to 100 μM, read-out: Potencies (EC50) at the P2Y2-R): 140 nM; EC50 (P2Y2-R [3]): 100 nM; EC50 (P2Y4-R; read-out: Potencies (EC50) at the P2Y4-R): 900 nM
